A short description of this data set: Sea salt added to the turmeric mixture, folliculitis after treatment. Type of data set: in vivo. The text has this:
It is believed that the sea salt help to open or penetrate the cellular wall. […] It is believed that the sea salt should be between about 1-10 parts of the turmeric mixture, with the remaining 90-99 parts being turmeric and milk/clay/etc. A presently preferred range is about 1-2 parts sea salt to about […] turmeric mixture.

For sea salt, the folliculitis after treatment entry was “appears to help to minimize folliculitis”.

(Values after patent publication US20140044814A1, “Composition and Methods for Permanent Hair Removal” (priority 2012, published 2014).)
